One data set addresses Phosphodiesterase 4 (Homo sapiens, UniProt P27815+Q08499+Q07343+Q08493). Format: functional, cell-based. To be noted: u-937.
Data set [1] concerns the target T1, Muscarinic acetylcholine receptor M3 (Homo sapiens, UniProt P20309). As to the kind of experiment: biochemical. The class given is cell-based, CHO.
Target sequence in this assay (P20309 whole entry): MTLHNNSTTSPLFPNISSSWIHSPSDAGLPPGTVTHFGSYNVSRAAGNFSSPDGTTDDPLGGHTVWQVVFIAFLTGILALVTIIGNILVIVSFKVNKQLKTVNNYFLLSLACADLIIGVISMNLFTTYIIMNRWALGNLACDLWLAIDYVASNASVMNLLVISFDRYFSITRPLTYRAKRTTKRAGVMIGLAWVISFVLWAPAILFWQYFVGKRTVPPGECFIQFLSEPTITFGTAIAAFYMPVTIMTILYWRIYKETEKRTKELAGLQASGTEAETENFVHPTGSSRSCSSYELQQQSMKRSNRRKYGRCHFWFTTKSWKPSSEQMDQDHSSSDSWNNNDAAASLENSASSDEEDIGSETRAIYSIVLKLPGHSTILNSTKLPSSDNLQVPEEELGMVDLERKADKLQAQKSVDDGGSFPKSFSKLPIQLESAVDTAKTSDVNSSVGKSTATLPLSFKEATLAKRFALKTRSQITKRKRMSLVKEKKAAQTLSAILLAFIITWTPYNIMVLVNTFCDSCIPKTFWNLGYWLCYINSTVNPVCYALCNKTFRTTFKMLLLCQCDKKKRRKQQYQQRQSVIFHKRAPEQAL
The conditions of data set [2]: buffer, pH 7.4.
The target of data set [3] is T1, Muscarinic acetylcholine receptor M3. As to the kind of experiment: Displacement of [3H]methylscopolamine from recombinant human muscarinic M3 receptors expressed in CHO cells at 10 um. The class given is cell-based. Background: Displacement assays read how much labelled ligand stays bound in the presence of the test substance.
Target sequence in this assay (P20309 whole entry, looked up): as the sequence (P20309 whole entry) above

Molecules are shown by their SMILES. Some results are limits rather than exact numbers.

Description for Phosphodiesterase 4: Inhibition of PDE4 activity in U937 cells
Description for physchem: Dissociation constant, pKa of the compound

On Phosphodiesterase 4, `Cc1c(N[C@H]2C[C@@H]2C)nc(C2CC2)nc1N1CCCCCC1` displayed an IC50 of 7900 nM. The molecule further showed a Ki in data set [1] of 7.9 nM.

At Phosphodiesterase 4, `Cc1c(NC2(C)CC2)nc(C2CC2)nc1N1CCCCCC1` gave an IC50 of 6300 nM. Further, in data set [1], affinity was put at a Ki of 10 nM.

Consider `Cc1c(NC2CC2)nc(C2CC2)nc1N1CC=CCC1`, for which the IC50 at Phosphodiesterase 4 worked out at 790 nM. For the same molecule, the Ki in data set [1] is 32 nM. The molecule further came in with a LogK-IAMex in data set [2] of 2.37.

Take `Cc1c(NCc2cccs2)nc(C2CC2)nc1NC1CC1`: on Phosphodiesterase 4, the half-inhibitory concentration (IC50) amounted to 6300 nM. Further, in data set [1], the inhibitory constant (Ki) stood at 126 nM. Further, in data set [2], the LogK-IAMex was 2.21.

As for `O=[N+]([O-])c1c(NC2CC2)nc(C2CC2)nc1N1CCCCCC1`, in “physchem”, the pKa amounted to 4.64. Further, the IC50 on Phosphodiesterase 4 worked out at 1260 nM. Besides, the Ki in data set [1] turned out to be 2510 nM.

With `Cc1c(NC2CC2)nc(C2CC2)nc1N1CCC(Cc2ccccc2)CC1`, the IC50 against Phosphodiesterase 4 came out at 2000 nM. The molecule further had an inhibition constant (Ki) in data set [1] of 790 nM. In addition, in data set [2], the LogK-IAMex came out at 3.89.

As to `Cc1c(NC2CC2)nc(C2CC2)nc1N1CCCCCCC1`, on Phosphodiesterase 4, the IC50 came to 1600 nM. This molecule displayed a Ki in data set [1] of 16 nM. Further, the LogK-IAMex in data set [2] is 3.05.

In “physchem”, `c1c(NC2CC2)nc(C2CC2)nc1N1CCCCCC1` showed a pKa of 8.03. The molecule further came in with an IC50 at Phosphodiesterase 4 of 400 nM. For the same molecule, the inhibitory constant (Ki) in data set [1] is 63 nM.

`Cc1c(NC2CC2)nc(C2CC2)nc1N1CCSCC1`: the pKa in “physchem” stood at 6.99. At Phosphodiesterase 4, this molecule registered an IC50 of 320 nM. In data set [1], the affinity, expressed as Ki, was 79 nM. The molecule further displayed a LogK-IAMex in data set [2] of 2.14.

On Phosphodiesterase 4, `Cc1c(NC2CC2)nc(C(C)C)nc1N1CCCCCC1` registered an IC50 of 2500 nM. This molecule also came in with a Ki in data set [1] of 25 nM.

In the case of `Cc1c(NC2CC2)nc(C2CC2)nc1N1CCOCC1`, the inhibition in data set [3] was below 50%. For the same molecule, the IC50 at Phosphodiesterase 4 stood at 790 nM. Also, in data set [2], the LogK-IAMex is reported as 1.45.

Regarding `C1CCCN(c2nc(C3CC3)nc3c2CCCN3)CC1`, the IC50 against Phosphodiesterase 4 was determined as 500 nM. In data set [1], this molecule had an inhibition constant Ki of 50 nM.

The molecule `Cc1c(NC2CCCCC2)nc(C2CC2)nc1NC1CC1` came in with an IC50 against Phosphodiesterase 4 of 2500 nM. The inhibition constant Ki in data set [1] is 316 nM. Also, the LogK-IAMex in data set [2] worked out at 2.71.

In turn, `Cc1c(NC2CC2)nc(C2CC2)nc1N1CCCC1` returned a half-inhibitory concentration (IC50) against Phosphodiesterase 4 of 1600 nM. The molecule also showed a Ki in data set [1] of 100 nM. Besides, the LogK-IAMex in data set [2] is given as 2.36.

At Phosphodiesterase 4, `C[C@@H]1C[C@H]1c1nc(NC2CC2)cc(N2CCCCCC2)n1` showed an IC50 of 2500 nM. For the same molecule, in data set [1], the Ki is 398 nM.

`Cc1c(NC2CC2)nc(CC2CC2)nc1N1CCCCCC1` showed an IC50 at Phosphodiesterase 4 of 2000 nM. The molecule also displayed a Ki in data set [1] of 126 nM.

For the molecule `Cc1c(NC2CC2)nc(C2CC2)nc1N1CCC(C)CC1`, the half-inhibitory concentration (IC50) on Phosphodiesterase 4 was 630 nM. Also, in data set [1], the inhibition constant Ki was 16 nM. For the same molecule, the LogK-IAMex in data set [2] was 2.8.

Take `Cc1c(NC2CC2)nc(C2CC2)nc1N1CCC(F)(F)CC1`: the concentration for half-maximal inhibition (IC50) against Phosphodiesterase 4 came out at 400 nM. In data set [1], this molecule showed a Ki of 50 nM. In data set [2], this molecule returned a LogK-IAMex of 2.5.

In turn, `Brc1c(NC2CC2)nc(C2CC2)nc1N1CCCCCC1` gave a pKa in “physchem” of 6.21. In addition, the half-inhibitory concentration (IC50) against Phosphodiesterase 4 came out at 630 nM. This molecule returned an inhibition constant (Ki) in data set [1] of 316 nM.

In “physchem”, `CCc1c(NC2CC2)nc(C2CC2)nc1N1CCSCC1` had a pKa of 6.78. At Phosphodiesterase 4, this molecule gave an IC50 of 1600 nM. Moreover, the affinity in data set [1], expressed as Ki, was 100 nM.

As for `Fc1c(NC2CC2)nc(C2CC2)nc1N1CCCCCC1`, the pKa in “physchem” amounted to 6.44. In addition, the IC50 against Phosphodiesterase 4 was 630 nM. The affinity in data set [1] corresponds to a Ki of 251 nM.

The molecule `C1CCCN(c2nc(C3CC3)nc3c2CCCCN3)CC1` showed a half-maximal inhibitory concentration (IC50) on Phosphodiesterase 4 of 1300 nM. For the same molecule, in data set [1], the affinity, expressed as Ki, was 10 nM.

Regarding `Cc1c(NC2CC2)nc(C2CC2)nc1N1CCC(CO)CC1`, on Phosphodiesterase 4, the half-maximal inhibitory concentration (IC50) came to 630 nM. Besides, in data set [1], the inhibitory constant (Ki) came out at 501 nM. In data set [2], this molecule showed a LogK-IAMex of 1.57.

Consider `Cc1c(NC2CC2)nc(C2CC2)nc1N1CCC(C(F)(F)F)CC1`, for which, on Phosphodiesterase 4, the IC50 came to 2000 nM. Besides, in data set [1], affinity was put at a Ki of 100 nM. The molecule also registered a LogK-IAMex in data set [2] of 2.94.

As for `Cc1c(NC2CC2)nc(C2CC2)nc1N1CCC(=O)CC1`, the 50% inhibitory concentration (IC50) against Phosphodiesterase 4 stood at 3200 nM. Further, the inhibition constant Ki in data set [1] is 3200 nM. Besides, the LogK-IAMex in data set [2] worked out at 1.35.

Turning to `CCC1CCN(c2nc(C3CC3)nc(NC3CC3)c2C)CC1`, the concentration for half-maximal inhibition (IC50) against Phosphodiesterase 4 is 630 nM. This molecule also displayed a Ki in data set [1] of 50 nM. In addition, in data set [2], the LogK-IAMex is 3.21.

In turn, `Cc1c(NC2CC2)nc(Cc2ccccc2)nc1N1CCCCCC1` had an IC50 on Phosphodiesterase 4 of 1000 nM. Further, affinity in data set [1] was put at a Ki of 501 nM.

`Cc1c(NC2CC2)nc(C2CC2)nc1N1CCC(O)CC1` gave a concentration for half-maximal inhibition (IC50) against Phosphodiesterase 4 of 4000 nM. This molecule also showed a Ki in data set [1] of 501 nM. In data set [2], this molecule gave a LogK-IAMex of 1.2.

As to `Cc1c(NC2CC2)nc(C2CC2)nc1N1CCC2(CCCC2)CC1`, at Phosphodiesterase 4, the concentration for half-maximal inhibition (IC50) worked out at 790 nM. The molecule further gave a Ki in data set [1] of 158 nM. In addition, the LogK-IAMex in data set [2] stood at 3.66.

For the molecule `Cc1c(NCc2ccccc2)nc(C2CC2)nc1NC1CC1`, the IC50 at Phosphodiesterase 4 was 4000 nM. Also, the Ki in data set [1] came to 200 nM. Further, in data set [2], the LogK-IAMex came out at 2.36.

On to `Nc1c(NC2CC2)nc(C2CC2)nc1N1CCCCCC1`, for which the pKa in the data set “physchem” stood at 7.15. On Phosphodiesterase 4, this molecule displayed an IC50 of 790 nM. For the same molecule, the Ki in data set [1] amounted to 79 nM.

As for `C=C1CCN(c2nc(C3CC3)nc(NC3CC3)c2C)CC1`, on Phosphodiesterase 4, the half-maximal inhibitory concentration (IC50) is 400 nM. In data set [1], this molecule returned a Ki of 79 nM. In addition, in data set [2], the LogK-IAMex came out at 2.7.

In the case of `Fc1c(NC2CC2)nc(C2CC2)nc1N1CCSCC1`, the inhibition in data set [3] was below 50%. Moreover, the pKa in “physchem” amounted to 5.27. The molecule also returned a concentration for half-maximal inhibition (IC50) against Phosphodiesterase 4 of 250 nM.

In turn, `Cc1c(NC2CC2)nc(C2CC2)nc1N1CCC(C)(C)CC1` gave an IC50 against Phosphodiesterase 4 of 320 nM. In data set [1], this molecule showed an inhibition constant (Ki) of 25 nM. This molecule also showed a LogK-IAMex in data set [2] of 3.02.

For `Cc1c(NC2CC2)nc(C2CC2)nc1N1CCCCC1`, at Phosphodiesterase 4, the IC50 came out at 500 nM. The affinity in data set [1] corresponds to a Ki of 13 nM. The molecule also registered a LogK-IAMex in data set [2] of 2.5.

With `Cc1c(NC2CC2)nc(C2CCCC2)nc1N1CCCCCC1`, the half-maximal inhibitory concentration (IC50) on Phosphodiesterase 4 came out at 1260 nM. In data set [1], this molecule gave a Ki of 79 nM.

`Cc1c(NC2CCCCCC2)nc(C2CC2)nc1NC1CC1` had a 50% inhibitory concentration (IC50) at Phosphodiesterase 4 of 2000 nM. This molecule also gave an inhibition constant (Ki) in data set [1] of 398 nM. Also, the LogK-IAMex in data set [2] is recorded as 2.98.

On Phosphodiesterase 4, `Cc1c(NC2CCC2)nc(C2CC2)nc1N1CCCCCC1` returned an IC50 of 2000 nM. In data set [1], this molecule came in with a Ki of 7.9 nM.

The molecule `Cc1c(NCCc2cccs2)nc(C2CC2)nc1NC1CC1` yielded an IC50 against Phosphodiesterase 4 of 2500 nM. In data set [1], this molecule returned a Ki of 79 nM. For the same molecule, the LogK-IAMex in data set [2] is listed as 2.57.

The molecule `Cc1c(NC2CC2)nc([C@@H]2C[C@H]2C)nc1N1CCCCCC1` gave an IC50 against Phosphodiesterase 4 of 3200 nM. Moreover, the inhibitory constant (Ki) in data set [1] came to 32 nM.

With `COc1c(NC2CC2)nc(C2CC2)nc1N1CCSCC1`, the pKa in the data set “physchem” worked out at 6.47. At Phosphodiesterase 4, the IC50 came out at 2500 nM. This molecule displayed a Ki in data set [1] of 398 nM.

`Cc1c(NC2CC2)nc(C2CC2)nc1N1CC2CCC(C2)C1` came in with an IC50 against Phosphodiesterase 4 of 500 nM. Also, the affinity in data set [1], expressed as Ki, was 6.3 nM. In data set [2], this molecule gave a LogK-IAMex of 3.11.

`Cc1c(NC2CC2)nc(C2CC2)nc1N(C)Cc1ccccc1`: on Phosphodiesterase 4, the 50% inhibitory concentration (IC50) turned out to be 400 nM. Further, the affinity in data set [1] corresponds to a Ki of 251 nM. Moreover, the LogK-IAMex in data set [2] is recorded as 2.7.

Molecule `Cc1c(NCc2c(F)cccc2F)nc(C2CC2)nc1NC1CC1` had a half-maximal inhibitory concentration (IC50) at Phosphodiesterase 4 of 2000 nM. Besides, affinity in data set [1] was put at a Ki of 63 nM. The LogK-IAMex in data set [2] is 2.38.

Regarding `Cc1c(NC2CC2)nc(C2CC2)nc1N1CCc2ccccc2C1`, at Phosphodiesterase 4, the IC50 came out at 500 nM. Moreover, the Ki in data set [1] stood at 316 nM. The molecule also displayed a LogK-IAMex in data set [2] of 2.97.

In the case of `Cc1c(NC2CC2)nc(C2CCC2)nc1N1CCCCCC1`, on Phosphodiesterase 4, the IC50 was found to be 2000 nM. Besides, the affinity in data set [1], expressed as Ki, was 40 nM.

The term IC50 denotes the point on the concentration scale where inhibition reaches its midpoint. Broadly, the Ki is the dissociation constant of the complex between target and ligand, obtained from inhibition or displacement. The pKa is the negative logarithm of the acid dissociation constant. Lower therefore signals a group that gives up its proton readily. For orientation: inhibition means the change of the read-out against control, counted positive when it falls.

The values are drawn from ChEMBL document CHEMBL1146129, “First dual M3 antagonists-PDE4 inhibitors: synthesis and SAR of 4,6-diaminopyrimidine derivatives” (Bioorg Med Chem Lett, 2006).
